Calls of active or inactive are those of the source. Bounds are passed on as bounds.

These results are taken from ChEMBL document CHEMBL1136916, “Discovery of new S-adenosylmethionine decarboxylase inhibitors for the treatment of Human African Trypanosomiasis (HAT)” (Bioorg Med Chem Lett, 2009).

For data set [1], the system named is Trypanosoma brucei brucei. Description: Antitrypanosomal activity against Trypanosoma brucei brucei. It counts as functional, organism-based.
For a further data set, the system named is Trypanosoma brucei. The data set can be described thus: Inhibition of Trypanosoma brucei AdoMetDC assessed as ratio of Kinact to Ki(apparent).
In data set [2] the test system is Trypanosoma brucei rhodesiense. The data set can be described thus: Antitrypanosomal activity against Trypanosoma brucei rhodesiense. It counts as functional, organism-based.
In data set [3] the test system is Trypanosoma brucei brucei. The data set can be described thus: Antitrypanosomal activity against Trypanosoma brucei brucei infected mouse assessed as reduction in parasitemia. It counts as functional, organism-based.
Data set [4] is described as follows: Distribution coefficient, log D at pH 7.4 by shake flask method. It counts as physicochemical. The settings on record: octanol/water.
Data set [5] in a line: AUC in blood of single dose ip administered mouse. It counts as ADME, organism-based.
The nature of data set [6]: Half life in single dose ip administered mouse. It counts as ADME, organism-based. As to conditions: in vivo.
Data set [7] can be described thus: AUC in brain of single dose ip administered mouse. It counts as ADME, organism-based.
Data set [8] in a line: Cmax in blood of single dose ip administered mouse. It counts as ADME, organism-based. Set-up: route intraperitoneal.
Data set [9] in a line: Cmax in brain of single dose ip administered mouse. More on the design: route intraperitoneal. It counts as ADME, organism-based.

What is called IC50 is the concentration that gives 50% inhibition. A low value points to inhibition by little substance. `Cc1nc(N)c2ncn([C@@H]3O[C@H](CN(C)C/C=C\CN)[C@@H](O)[C@H]3O)c2n1` showed an IC50 in [1] above 14000 nM.

For the compound `CN(C/C=C\CN)C[C@H]1O[C@@H](n2cnc3c(N)ncnc32)[C@@H](F)[C@@H]1O`, the Ratio in the data set with Trypanosoma brucei was 0.19. In addition, the half-inhibitory concentration (IC50) is 2600 nM in data set [2] and above 14000 nM in [1].

As for `CN(C/C=C\CN)C[C@H]1O[C@@H](n2cnc3c(N)ncnc32)[C@H](F)[C@@H]1O`, the Ratio with Trypanosoma brucei was 0.19. Besides, the IC50 is 1400 nM in data set [2] and above 14000 nM in data set [1].

As a reminder, the logD is the decadic logarithm of the distribution of all forms, ionised or not, between an organic phase and buffer at a given pH. The low end stands for lower lipophilicity, the high end for higher lipophilicity. Turning to `CN(C/C=C\CN)C[C@H]1O[C@@H](n2cnc3c(N)ncnc32)[C@H](O)[C@@H]1O`, in the data set with Trypanosoma brucei, the Ratio stood at 1.5. The values for the half-inhibitory concentration (IC50) in data set [2] and in [1] were 11 nM and 210 nM, respectively. In addition, the result in data set [3] was Active. This compound also displayed a logD in data set [4] of -1.8.

With `CCc1nc2c(N)ncnc2n1[C@@H]1O[C@H](CN(C)C/C=C\CN)[C@@H](O)[C@H]1O`, the IC50 in [1] came out at 900 nM.

`CCCc1nc2c(N)ncnc2n1[C@@H]1O[C@H](CN(C)C/C=C\CN)[C@@H](O)[C@H]1O`: in data set [1], the half-maximal inhibitory concentration (IC50) was 11000 nM.

Turning to `CN(C/C=C\CN)C[C@H]1O[C@@H](n2cnc3c(N)nc(Cl)nc32)[C@H](O)[C@@H]1O`, the Ratio in the data set with Trypanosoma brucei was found to be 0.02. The concentration for half-maximal inhibition (IC50) in data set [2] came out at 1700 nM; in data set [1], 7270 nM.

For orientation: AUC means the area under the concentration-time curve, a measure of exposure. Low values mean less exposure, high ones more exposure. One may read the half-life as the time needed for the level to fall by half in the phase considered. The low end stands for fast loss, the high end for slow loss. One may read the Cmax as the peak of the concentration-time curve. With `Cc1nc2c(N)ncnc2n1[C@@H]1O[C@H](CN(C)C/C=C\CN)[C@@H](O)[C@H]1O`, the Ratio with Trypanosoma brucei was 7.78. In addition, the IC50 in data set [2] came to 1 nM; in data set [1] it was 27 nM. Further, the AUC in data set [5] came out at 17900 ng·h/mL; in data set [7], 1300 ng·h/mL. The half-life in data set [6] was 7.43 h. In addition, the values for the peak concentration (Cmax) in data set [8] and in data set [9] were 36900 ng/mL and 660 ng/mL, respectively. Also, the result in data set [3] was Active.
